Several values for one entry are separate records, joined by “and”; a condition that tells them apart may be missing. Equal values may be shown once.
Key:
[1] = molar heat capacity at constant pressure; conditions: 101.33 kPa
[2] = Crystal
[3] = Molar enthalpy of transition or fusion; conditions: Crystal

OC[C@@H](O)[C@H](O)[C@@H](O)CO [xylitol]
[1]
Conditions | molar heat capacity at constant pressure [J/K/mol]
80 K, Crystal | 63.67
80.07 K, Crystal | 62.71
83.61 K, Crystal | 65.01
85 K, Crystal | 66.43
86.53 K, Crystal | 67.25
89.49 K, Crystal | 69.29
90 K, Crystal | 69.62
92.49 K, Crystal | 71.54
95 K, Crystal | 73.13
95.54 K, Crystal | 73.71
98.51 K, Crystal | 75.94
100 K, Crystal | 76.86
101.4 K, Crystal | 78.2
104.34 K, Crystal | 80.53
105 K, Crystal | 80.73
107.35 K, Crystal | 82.78
110 K, Crystal | 84.68
110.28 K, Crystal | 84.97
113.27 K, Crystal | 87.33
115 K, Crystal | 88.65
116.32 K, Crystal | 89.39
119.31 K, Crystal | 91.73
120 K, Crystal | 92.61
122.25 K, Crystal | 93.79
125 K, Crystal | 96.54
125.24 K, Crystal | 96.15
128.3 K, Crystal | 98.38
130 K, Crystal | 100.4
131.31 K, Crystal | 100.5
134.27 K, Crystal | 102.7
135 K, Crystal | 104.2
137.29 K, Crystal | 104.8
140 K, Crystal | 108
140.38 K, Crystal | 106.6
143.41 K, Crystal | 109
145 K, Crystal | 111.7
146.39 K, Crystal | 111.2
149.42 K, Crystal | 113.3
150 K, Crystal | 115.3
152.51 K, Crystal | 115.5
155 K, Crystal | 118.9
155.56 K, Crystal | 117.7
158.57 K, Crystal | 119.8
160 K, Crystal | 122.4
161.56 K, Crystal | 121.9
164.6 K, Crystal | 123.9
165 K, Crystal | 126
167.69 K, Crystal | 126
170 K, Crystal | 129.5
170.76 K, Crystal | 129.7
173.84 K, Crystal | 132.3
175 K, Crystal | 133
176.88 K, Crystal | 134
179.99 K, Crystal | 136
180 K, Crystal | 136.6
183.16 K, Crystal | 138
185 K, Crystal | 140.1
186.3 K, Crystal | 140.4
190 K, Crystal | 143.7
192.5 K, Crystal | 144.2
195 K, Crystal | 147.3
195.64 K, Crystal | 146.3
198.85 K, Crystal | 148.5
200 K, Crystal | 151
202.03 K, Crystal | 150.3
205 K, Crystal | 154.7
205.18 K, Crystal | 152.4
208.33 K, Crystal | 155.1
210 K, Crystal | 158.4
211.45 K, Crystal | 157.1
214.63 K, Crystal | 159.5
215 K, Crystal | 162.1
217.88 K, Crystal | 161.4
220 K, Crystal | 165.9
221.1 K, Crystal | 163.8
224.3 K, Crystal | 165.8
225 K, Crystal | 169.6
227.46 K, Crystal | 168.2
230 K, Crystal | 173.4
230.62 K, Crystal | 170.6
233.78 K, Crystal | 172.5
235 K, Crystal | 177.1
236.94 K, Crystal | 174
240 K, Crystal | 180.8
240.13 K, Crystal | 176.1
243.21 K, Crystal | 178.2
245 K, Crystal | 184.4
246.34 K, Crystal | 180.8
249.48 K, Crystal | 182.2
250 K, Crystal | 188
252.61 K, Crystal | 184.3
255 K, Crystal | 191.5
255.78 K, Crystal | 186.3
258.93 K, Crystal | 188.6
260 K, Crystal | 195
262.07 K, Crystal | 191
265 K, Crystal | 198.3
265.19 K, Crystal | 193.2
268.29 K, Crystal | 195.2
270 K, Crystal | 201.6
271.44 K, Crystal | 197.5
274.65 K, Crystal | 199.6
275 K, Crystal | 204.8
277.84 K, Crystal | 201.9
280 K, Crystal | 208
281.02 K, Crystal | 204.7
284.19 K, Crystal | 207.3
285 K, Crystal | 211.1
287.39 K, Crystal | 210.2
290 K, Crystal | 214.2
290.63 K, Crystal | 212.7
293.83 K, Crystal | 215.1
295 K, Crystal | 217.4
297.06 K, Crystal | 217.8
298.15 K, Crystal | 219.4
300 K, Crystal | 220.7
300.4 K, Crystal | 220.6
303.7 K, Crystal | 223.9
305 K, Crystal | 224.2
310 K, Crystal | 227.9
310.42 K, Crystal | 229.1
314.19 K, Crystal | 232.7
315 K, Crystal | 232.1
318.33 K, Crystal | 237.1
320 K, Crystal | 236.9
322.65 K, Crystal | 240.3
325 K, Crystal | 242.4
326.89 K, Crystal | 244.7
330 K, Crystal | 248.8
331.21 K, Crystal | 251.3
335 K, Crystal | 256.3
335.57 K, Crystal | 258.1
339.95 K, Crystal | 261.8
340 K, Crystal | 265.3
344.29 K, Crystal | 261.9
345 K, Crystal | 275.9
348.52 K, Crystal | 262.4
350 K, Crystal | 288.6
352.73 K, Crystal | 271.3
355 K, Crystal | 303.6
356.88 K, Crystal | 286.2
360 K, Crystal | 321.5
360.92 K, Crystal | 323.9
370 K, Liquid | 420.6
372.89 K, Liquid | 422
375 K, Liquid | 423.4
376.72 K, Liquid | 424.4
380 K, Liquid | 426.2
380.91 K, Liquid | 427
385 K, Liquid | 429
385.11 K, Liquid | 428.8
390 K, Liquid | 431.8

Conditions | Molar enthalpy of transition or fusion | Triple point temperature
[2] | – | 367.52 K and 369.06 K
[3] | 8.05 kcal/mol and 7.95 kcal/mol | –
